Assay results as given in patent US9730938B2, “Bruton's tyrosine kinase inhibitor combinations and uses thereof” (Pharmacyclics LLC, priority 2014, dated 2017).

What was measured:
[1] = tested on: TMD8 cells expressing PIM1 S97N; experiment: Cell growth of modified TMD8 cells treated with ibrutinib; conditions: Homo sapiens
[2] = tested on: OCI-LY-3; experiment: Combined drug treatment cell viability, CellTiter-Glo assay (Example 2); type: cell-based; conditions: JAK3 10 μM / MCL-1 3 μM / medium alone, 3 days
[3] = tested on: U2932; experiment: as above; type: cell-based; conditions: JAK3 10 μM / MCL-1 3 μM / medium alone, 3 days
[4] = tested on: HBL-1; experiment: as above; type: cell-based; conditions: JAK3 10 μM / MCL-1 3 μM / medium alone, 3 days
[5] = tested on: TMD8; experiment: Combined drug treatment cell viability, CellTiter-Glo assay (Example 1); type: cell-based; conditions: IDH1i 10 uM / MALT1i 100 nM / medium alone, 3 days
Method: (§1) DLBCL cells at either 1×10^4 cells or 2×10^4 cells were plated onto each well of a 96-W plate (Table 1).
(§2) The stock solutions for the IDH1 inhibitor AGI5198 and the MALT1 inhibitor MI-2 were each prepared at 50 mM concentration.
(§3) The 96-W plate was then incubated for 3 days. Cell viability was examined using a CellTiter-Glo assay.
(§4) A 40 μL of CellTiter-Glo reagent was added directly into each well of the 96-W plate. The plate was then shaken on a Shaker (Labsystem Wellmix) at speed 5 for 10-20 min at room temperature. Next, 100 μL of the mixed medium was transferred to a white, non-transparent, flat bottom 96-W plate for assaying. A Flexstation 3 luminometer was used for detecting and measuring the luminescent signals. Measurements were taken at room temperature.
(§5) In general, the combination is described as synergistic (CI<1), additive (CI=1), or antagonistic (CI>1). Synergism is further separated into very strong synergism (<0.1), strong synergism (0.1-0.3), synergism (0.3-0.7), moderate synergism (0.7-0.85), and slight synergism (0.85-0.9).

[6] = tested on: SU-DHL-2; experiment: as above; type: cell-based; conditions: IDH1i 10 uM / MALT1i 200 nM / medium alone, 3 days
Method: as §1, §2, §3, §4, §5

[7] = tested on: OCI-LY-10; experiment: as above; type: cell-based; conditions: IDH1i 10 uM / MALT1i 5 uM / medium alone, 3 days
Method: as §1, §2, §3, §4, §5

[8] = tested on: OCI-LY-3; experiment: as above; type: cell-based; conditions: IDH1i 10 uM / MALT1i 5 uM / medium alone, 3 days
Method: as §1, §2, §3, §4, §5

[9] = tested on: U2932; experiment: as above; type: cell-based; conditions: IDH1i 10 uM / MALT1i 200 nM / medium alone, 3 days
Method: as §1, §2, §3, §4, §5

[10] = tested on: TMD8 cells expressing PIM1 L2V; experiment: Cell growth of modified TMD8 cells treated with ibrutinib; conditions: Homo sapiens
[11] = tested on: TMD8; experiment: Combined drug treatment cell viability, CellTiter-Glo assay (Example 2); type: cell-based; conditions: JAK3 10 μM / MCL-1 3 μM / medium alone, 3 days
[12] = tested on: SU-DHL-2; experiment: as above; type: cell-based; conditions: JAK3 10 μM / MCL-1 3 μM / medium alone, 3 days
[13] = tested on: OCI-LY-10; experiment: as above; type: cell-based; conditions: JAK3 10 μM / MCL-1 3 μM / medium alone, 3 days
[14] = tested on: TMD8 cells expressing PIM1 P81S; experiment: Cell growth of modified TMD8 cells treated with ibrutinib; conditions: Homo sapiens
[15] = tested on: TMD8 cells expressing PIM1-WT; experiment: as above; conditions: Homo sapiens

## C=CC(=O)N1CCC[C@@H](n2nc(-c3ccc(Oc4ccccc4)cc3)c3c(N)ncnc32)C1 [ibrutinib, 1-((R)-3-(4-amino-3-(4-phenoxyphenyl)-1H-pyrazolo[3,4-d]pyrimidin-1-yl)piperidin-1-yl)prop-2-en-1-one]
[1]
  EC50: > 1000 nM
[2]; ibrutinib 0.0512 nM
  luminescence (CellTiter-Glo): 80095.49
[2]; ibrutinib 0.256 nM
  luminescence (CellTiter-Glo): 81910.97
[2]; ibrutinib 1.28 nM
  luminescence (CellTiter-Glo): 89730.66
[2]; ibrutinib 6.4 nM
  luminescence (CellTiter-Glo): 81709.84
[2]; ibrutinib 32 nM
  luminescence (CellTiter-Glo): 80596.96
[2]; ibrutinib 160 nM
  luminescence (CellTiter-Glo): 84190.37
[2]; ibrutinib 800 nM
  luminescence (CellTiter-Glo): 82227.41
[2]; ibrutinib 20000 nM
  luminescence (CellTiter-Glo): 69084.64
[2]; ibrutinib 40000 nM
  luminescence (CellTiter-Glo): 75112.98
[3]; ibrutinib 0.0512 nM
  luminescence (CellTiter-Glo): 62396.81
[3]; ibrutinib 0.256 nM
  luminescence (CellTiter-Glo): 60528.12
[3]; ibrutinib 1.28 nM
  luminescence (CellTiter-Glo): 60811.50
[3]; ibrutinib 6.4 nM
  luminescence (CellTiter-Glo): 58640.71
[3]; ibrutinib 32 nM
  luminescence (CellTiter-Glo): 57009.94
[3]; ibrutinib 160 nM
  luminescence (CellTiter-Glo): 55090.45
[3]; ibrutinib 800 nM
  luminescence (CellTiter-Glo): 54579.83
[3]; ibrutinib 20000 nM
  luminescence (CellTiter-Glo): 18900.83
[3]; ibrutinib 40000 nM
  luminescence (CellTiter-Glo): 55951.28
[4]; ibrutinib 0.0512 nM
  luminescence (CellTiter-Glo): 46288.31
[4]; ibrutinib 0.256 nM
  luminescence (CellTiter-Glo): 42826.48
[4]; ibrutinib 1.28 nM
  luminescence (CellTiter-Glo): 43461.99
[4]; ibrutinib 6.4 nM
  luminescence (CellTiter-Glo): 38857.83
[4]; ibrutinib 32 nM
  luminescence (CellTiter-Glo): 35516.66
[4]; ibrutinib 160 nM
  luminescence (CellTiter-Glo): 35090.31
[4]; ibrutinib 800 nM
  luminescence (CellTiter-Glo): 35103.71
[4]; ibrutinib 20000 nM
  luminescence (CellTiter-Glo): 16831.87
[4]; ibrutinib 40000 nM
  luminescence (CellTiter-Glo): 36806.47
[5]; ibrutinib 0.0256 nM
  luminescence (CellTiter-Glo): 32496.06
[5]; ibrutinib 0.128 nM
  luminescence (CellTiter-Glo): 32828.16
[5]; ibrutinib 0.64 nM
  luminescence (CellTiter-Glo): 29180.29
[5]; ibrutinib 3.2 nM
  luminescence (CellTiter-Glo): 31383.77
[5]; ibrutinib 16 nM
  luminescence (CellTiter-Glo): 27190.31
[5]; ibrutinib 80 nM
  luminescence (CellTiter-Glo): 28263.05
[5]; ibrutinib 400 nM
  luminescence (CellTiter-Glo): 25674.76
[5]; ibrutinib 2000 nM
  luminescence (CellTiter-Glo): 23421.20
[5]; ibrutinib 10000 nM
  luminescence (CellTiter-Glo): 10819.72
[6]; ibrutinib 0.0256 nM
  luminescence (CellTiter-Glo): 141202.0
[6]; ibrutinib 0.128 nM
  luminescence (CellTiter-Glo): 146159.1
[6]; ibrutinib 0.64 nM
  luminescence (CellTiter-Glo): 159399.0
[6]; ibrutinib 3.2 nM
  luminescence (CellTiter-Glo): 161613.5
[6]; ibrutinib 16 nM
  luminescence (CellTiter-Glo): 155353.5
[6]; ibrutinib 80 nM
  luminescence (CellTiter-Glo): 164140.7
[6]; ibrutinib 400 nM
  luminescence (CellTiter-Glo): 159908.6
[6]; ibrutinib 2000 nM
  luminescence (CellTiter-Glo): 154426.1
[6]; ibrutinib 10000 nM
  luminescence (CellTiter-Glo): 111485.8
[7]; ibrutinib 0.0256 nM
  luminescence (CellTiter-Glo): 61548.88
[7]; ibrutinib 0.128 nM
  luminescence (CellTiter-Glo): 68196.56
[7]; ibrutinib 0.64 nM
  luminescence (CellTiter-Glo): 63983.91
[7]; ibrutinib 3.2 nM
  luminescence (CellTiter-Glo): 51190.81
[7]; ibrutinib 16 nM
  luminescence (CellTiter-Glo): 27324.38
[7]; ibrutinib 80 nM
  luminescence (CellTiter-Glo): 23511.43
[7]; ibrutinib 400 nM
  luminescence (CellTiter-Glo): 23784.91
[7]; ibrutinib 2000 nM
  luminescence (CellTiter-Glo): 24452.84
[7]; ibrutinib 10000 nM
  luminescence (CellTiter-Glo): 24826.24
[8]; ibrutinib 0.0256 nM
  luminescence (CellTiter-Glo): 63957.70
[8]; ibrutinib 0.128 nM
  luminescence (CellTiter-Glo): 59441.78
[8]; ibrutinib 0.64 nM
  luminescence (CellTiter-Glo): 63322.70
[8]; ibrutinib 3.2 nM
  luminescence (CellTiter-Glo): 66789.02
[8]; ibrutinib 16 nM
  luminescence (CellTiter-Glo): 64655.70
[8]; ibrutinib 80 nM
  luminescence (CellTiter-Glo): 68972.20
[8]; ibrutinib 400 nM
  luminescence (CellTiter-Glo): 64472.02
[8]; ibrutinib 2000 nM
  luminescence (CellTiter-Glo): 55749.79
[8]; ibrutinib 10000 nM
  luminescence (CellTiter-Glo): 63477.51
[9]; ibrutinib 0.0256 nM
  luminescence (CellTiter-Glo): 63123.80
[9]; ibrutinib 0.128 nM
  luminescence (CellTiter-Glo): 57150.28
[9]; ibrutinib 0.64 nM
  luminescence (CellTiter-Glo): 53722.16
[9]; ibrutinib 3.2 nM
  luminescence (CellTiter-Glo): 53031.79
[9]; ibrutinib 16 nM
  luminescence (CellTiter-Glo): 51023.93
[9]; ibrutinib 80 nM
  luminescence (CellTiter-Glo): 49777.58
[9]; ibrutinib 400 nM
  luminescence (CellTiter-Glo): 46009.54
[9]; ibrutinib 2000 nM
  luminescence (CellTiter-Glo): 46858.01
[9]; ibrutinib 10000 nM
  luminescence (CellTiter-Glo): 37935.94
[10]
  EC50: > 1000 nM
[11]; ibrutinib 0.0512 nM
  luminescence (CellTiter-Glo): 28324.66
[11]; ibrutinib 0.256 nM
  luminescence (CellTiter-Glo): 28516.97
[11]; ibrutinib 1.28 nM
  luminescence (CellTiter-Glo): 28727.97
[11]; ibrutinib 6.4 nM
  luminescence (CellTiter-Glo): 28578.40
[11]; ibrutinib 32 nM
  luminescence (CellTiter-Glo): 28802.75
[11]; ibrutinib 160 nM
  luminescence (CellTiter-Glo): 29096.55
[11]; ibrutinib 800 nM
  luminescence (CellTiter-Glo): 25963.61
[11]; ibrutinib 20000 nM
  luminescence (CellTiter-Glo): 5261.63
[11]; ibrutinib 40000 nM
  luminescence (CellTiter-Glo): 22488.80
[12]; ibrutinib 0.0512 nM
  luminescence (CellTiter-Glo): 168606.0
[12]; ibrutinib 0.256 nM
  luminescence (CellTiter-Glo): 180865.8
[12]; ibrutinib 1.28 nM
  luminescence (CellTiter-Glo): 185508.3
[12]; ibrutinib 6.4 nM
  luminescence (CellTiter-Glo): 178437.4
[12]; ibrutinib 32 nM
  luminescence (CellTiter-Glo): 180464.1
[12]; ibrutinib 160 nM
  luminescence (CellTiter-Glo): 183505.7
[12]; ibrutinib 800 nM
  luminescence (CellTiter-Glo): 181165.6
[12]; ibrutinib 20000 nM
  luminescence (CellTiter-Glo): 4650.6
[12]; ibrutinib 40000 nM
  luminescence (CellTiter-Glo): 180616.8
[13]; ibrutinib 0.0512 nM
  luminescence (CellTiter-Glo): 46968.14
[13]; ibrutinib 1.28 nM
  luminescence (CellTiter-Glo): 28222.33
[13]; ibrutinib 6.4 nM
  luminescence (CellTiter-Glo): 17144.41
[13]; ibrutinib 32 nM
  luminescence (CellTiter-Glo): 14003.51
[13]; ibrutinib 160 nM
  luminescence (CellTiter-Glo): 13712.84
[13]; ibrutinib 800 nM
  luminescence (CellTiter-Glo): 14708.66
[13]; ibrutinib 20000 nM
  luminescence (CellTiter-Glo): 14261.89
[13]; ibrutinib 40000 nM
  luminescence (CellTiter-Glo): 15817.53
[14]
  EC50: > 1000 nM
[15]
  EC50: 76 nM
